Source: a melting point compilation (Tetko et al.; mined from patent text by program, amines drawn as free bases though some values may be those of a salt)

First: Nc1ccc(-c2ccc(=O)[nH]n2)cc1Cl
Second: Nc1cccc2c(-c3ccc(=O)[nH]n3)c(-c3ccccc3)nn12
The melting point of the first is higher: 280 to 282 °C for the first, 157 to 159 °C for the second.

First: COc1ccc(S(=O)(=O)c2ccccc2C(C)C)cc1
Second: COc1ccc(S(=O)(=O)C(Cl)(Cl)S(=O)(=O)N(C)C)cc1
The melting point of the first is lower: 100 °C for the first, 145 to 147 °C for the second.

Compared with `Nc1ncnc2c1c(-c1ccc(Oc3ccccc3)cc1)cn2[C@H]1CC[C@@H](N2CCCC2)CC1`, `CN1CCCCC1CCc1ccccc1NC(=O)c1ccc(O)cc1` (centres undefined) is higher in melting point: 101 to 104 °C for the first, 178 to 182 °C for the second.

First: CCn1cnc2c(Nc3cccc(N)c3)nc(N[C@H]3CC[C@H](O)CC3)nc21
Second: CN1CCC(CNc2ncc3ncnc(Nc4ccc(F)c(Cl)c4)c3n2)CC1
The melting point of the first is lower: 149 to 151 °C for the first, 198 to 201 °C for the second.

Compared with `Cn1nc(-c2ncc(Cl)cc2F)c(Cl)c1C(F)(F)F`, `Cc1nc(-c2c(F)cccc2F)nn1-c1ccccc1C(F)(F)F` is higher in melting point: 76 to 78 °C for the first, 80 to 82 °C for the second.

`Cc1ccc(-c2nc(C)c(C)c(Cl)n2)cc1` and `OCCCNc1nc(-c2ccc(Cl)c(Cl)c2)nc2ccccc12` cannot be ordered by melting point: 165 °C for the first, 164 to 166 °C for the second.

Compared with `COc1cc(/C=C/CO)ccc1OCc1coc(-c2ccccc2)n1`, `CCOc1cccc2cc(C(=O)NNS(=O)(=O)c3ccccc3)oc12` is higher in melting point: 113 to 114 °C for the first, 223 to 224 °C for the second.

Compared with `Cc1c(C(=O)CCl)csc1C(=O)CCl`, `O=C(NCCCl)c1c(Cl)cccc1Cl` is lower in melting point: 155 to 156 °C for the first, 114 °C for the second.

First: CC=CC(Oc1nc(OC)cc(OC)n1)C(C)(C)C#N (centres undefined)
Second: COc1nc2cc(Cl)c(Cl)cc2nc1S(C)(=O)=O
The melting point of the first is lower: 91 to 92 °C for the first, 216 to 219 °C for the second.

First: Cc1cc2c(C(C)(C)C)c(O)ccc2o1
Second: Cn1c(=O)oc(=O)c2ccc(F)cc21
The melting point of the first is lower: 49.9 °C for the first, 158 to 160 °C for the second.

First: COc1ccc(-c2ccccn2)c(S(=O)c2nc3cc(OC)c(OC)cc3[nH]2)c1 (centres undefined)
Second: CNc1nc(-c2cccc(NC(=O)c3ccccc3OC)c2)c2cc(OC)c(OC)cc2n1
The melting point of the first is higher: 208 to 210 °C for the first, 194 to 196 °C for the second.

Compared with `CCCCCCCCCCCC(=O)Nc1ccc(NC(=O)CCNC(=O)C2OC(C)(C)OCC2(C)C)cc1` (centres undefined), `CCCCOc1c(CNC(=O)OC(C)(C)C)n(CC2CC2)c(=O)c2ccc(Br)cc12` is lower in melting point: 144 to 145 °C for the first, 118 to 119 °C for the second.

Compared with `Cc1ccc(-c2c(C)c(NC(=O)CC(C)(C)C)c(C)c3c2OCC3c2ccc(C(C)C)cc2)cc1` (centres undefined), `CC(C)(C)OC(=O)Nc1ccc(-c2ccc(F)cc2)cc1NC(=O)CC(=O)c1sccc1Cl` is lower in melting point: 194 to 195 °C for the first, 168 to 169 °C for the second.

First: CC(CCCc1ccccc1)Oc1cc(O)c2c(c1)NCCC2=O (centres undefined)
Second: COC(=O)C[C@@H]1C[C@@H](COc2ccc(-c3ccc(C#N)cc3)cc2N)N(CCCc2ccccc2)C1=O
The melting point of the first is lower: 88 to 90 °C for the first, 111 to 112 °C for the second.

Compared with `CCCC(CCC)Nc1nc(C)nc(Oc2c(Br)cc(C(C)(C)O)cc2OC)c1[N+](=O)[O-]`, `COc1cc(C(F)(F)F)cc(OC)c1-c1csc(NC(=O)c2cc3ccccc3n2CC(=O)OC(C)(C)C)n1` is higher in melting point: 119 to 120 °C for the first, 214 to 216 °C for the second.

Compared with `COc1cc2c(cc1OC)/C(=C\c1ccc(OP(=O)(O)O)cc1)C(=O)N2`, `COc1ccc(/C=C/C(=O)C2C(=O)CC(c3ccc(OC)cc3)C([N+](=O)[O-])C2c2ccc(OC)c(OC)c2)cc1` (centres undefined) is lower in melting point: 218 to 220 °C for the first, 126 to 128 °C for the second.

First: Cc1c(NC(=O)c2ccc(OC[C@@H]3CCCO3)cc2)ccc2cc(CNCC3CCOCC3)[nH]c12
Second: COc1ccc(N2CCOCC2)c2sc(-c3nc4ccc(N(C)CC5CCOCC5)nc4[nH]3)nc12
The melting point of the first is lower: 161 to 162 °C for the first, 190 to 195 °C for the second.

First: NS(=O)(=O)c1cc(C(=O)O)cc(SCC(Br)CBr)c1Cc1ccccc1 (centres undefined)
Second: CCCCc1nc[nH]c(=O)c1Cc1ccc(-c2ccccc2C(=O)O)cc1
The melting point of the first is higher: 205 to 207 °C for the first, 197 to 200 °C for the second.

Compared with `CC1(c2ccc(N)cc2)C(=O)Nc2cc(Cl)ccc2C1=O` (centres undefined), `Cc1sc(N)c(C(=O)c2ccc(Cl)cc2)c1CN1CCN(c2ccc(F)cc2)CC1` is lower in melting point: 155 to 156 °C for the first, 70 to 72 °C for the second.

First: CCCn1nc2c(N)nc3ccccc3c2c1NCCC1CCN(C(C)=O)CC1
Second: CC(=O)Nc1nc(CCc2ccc(CN3CCC(NC(=O)OC(C)(C)C)C3)cc2)cs1 (centres undefined)
The melting point of the first is higher: 203 to 206 °C for the first, 131 to 132 °C for the second.

Compared with `O=C(O)c1c(Cl)cc(Cl)c(Cl)c1C(=O)O`, `CC(=O)c1cc(N)c(Cl)cc1Cl` is lower in melting point: 150 to 153 °C for the first, 74 °C for the second.

First: COc1cc2c(cc1OC)-c1c(C(N)=O)c(-c3cc(C)c(O)c(C)c3)c(C)n1CC2
Second: Cc1cccc(C)c1Nc1c(-c2c(Cl)cccc2OCC(N)=O)nc2ccc(F)cn12
The melting point of the first is higher: 229 to 231 °C for the first, 186 to 187 °C for the second.

Compared with `COC(=O)C1(CCCN2CCN(c3ccccc3)CC2)Oc2ccccc2OCC1O` (centres undefined), `COc1cccc(C(CCN2CCN(Cc3cccc(F)c3)CC2)C2(O)CCCCC2)c1` (centres undefined) is higher in melting point: 113 to 115 °C for the first, 131 to 133 °C for the second.

Compared with `CCCCc1nc(Cl)c(C=O)n1Cc1ccc(-c2nc3ccccn3c2C(=O)O)cc1`, `O=C(O)/C=C/c1cn(Cc2ccc(OCc3csc(-c4ccccc4)n3)cc2)nc1-c1cccs1` is higher in melting point: 120 to 123 °C for the first, 137 to 138 °C for the second.

First: CCC(=O)NCCc1c[nH]c2ccc3c(c12)CCCO3
Second: O=C(NCCN1CCOCC1)c1ccc(Cl)cc1
The melting point of the first is lower: 106 to 107 °C for the first, 120 to 121 °C for the second.

Compared with `Cc1noc(-c2cn(-c3cccc(-c4ccccc4OC(F)(F)F)c3)cn2)n1`, `N#CCCNC(=O)c1cccc(-c2cccn3nc(Nc4cccc(C(F)(F)F)c4)nc23)c1` is higher in melting point: 142 to 144 °C for the first, 214 to 215 °C for the second.

First: CC(Oc1c(Br)cc(Br)cc1Br)c1cc(Br)c(Br)cc1Br (centres undefined)
Second: Cc1cc(Cl)cc(C(=O)c2[nH]c(=O)[nH]c(=O)c2C(C)C)c1
The melting point of the first is lower: 110 to 112 °C for the first, 254 to 255 °C for the second.

Compared with `OC1(c2ccc(OCc3ccccc3)c(OCc3ccccc3)c2)CCCN(Cc2ccccc2)C1` (centres undefined), `CCC(C(=O)Oc1cc(=O)n(-c2ccccc2)c2ncccc12)c1ccccc1` (centres undefined) is higher in melting point: 80 °C for the first, 166 to 168 °C for the second.

Compared with `CCOC(=O)/C=C/c1cc(OCOC)nn1Cc1ccc(Cl)cc1Cl`, `CCOC(=O)c1c(Cl)c2cccnc2n(C)c1=O` is higher in melting point: 98 to 99 °C for the first, 132 to 135 °C for the second.

Compared with `N[C@H]1C=C(C(=O)O)OC1`, `CC1=CC(c2cccc([N+](=O)[O-])c2)C(C(=O)O)=NN1` (centres undefined) is lower in melting point: 193 to 195 °C for the first, 149 °C for the second.

First: C#CCC(C)(C(=O)O)C(=O)O
Second: CCC(=N)NC(=O)OC
The melting point of the first is higher: 135 °C for the first, 87 to 93 °C for the second.

First: C[C@@H](n1cnn(-c2ccc(OCC(F)(F)C(F)(F)F)cc2)c1=O)[C@@]1(c2ccc(F)cc2F)CO1
Second: O=C(Nc1ccc(-n2nc(C(F)(F)F)cc2C(F)(F)F)cc1)c1ccc(Cl)cc1F
The melting point of the first is lower: 128 to 129 °C for the first, 156 to 158 °C for the second.

First: O=C(Nc1n[nH]c(=S)s1)NC(Cc1ccccc1)C(=O)NCc1ccccc1 (centres undefined)
Second: C=CCOc1ccc2c(=O)c3ccccc3oc2c1C(=O)C=Cc1ccccc1
The melting point of the first is higher: 167 to 170 °C for the first, 150 to 152 °C for the second.

Compared with `C[C@@H](CNC(=O)COC(=O)c1cc(S(N)(=O)=O)c(Cl)cc1NCc1ccco1)O[N+](=O)[O-]`, `COC(=O)C(C)N(C(=O)CF)c1c(C)cccc1Cl` (centres undefined) is lower in melting point: 125 to 138 °C for the first, 101 to 103 °C for the second.

Compared with `O=C(Nc1ncc(C(F)(F)F)o1)C1c2cc(F)ccc2Oc2ccc(F)cc21`, `Cc1ccc(F)cc1C(=O)Nc1ccc(C(=O)N2Cc3cccn3-c3ccccc32)cn1` is lower in melting point: 232 °C for the first, 190 to 196 °C for the second.

Compared with `CC(CN(C)C)Nc1ccnc2cc(Cl)ccc12` (racemic), `Fc1ccc(CSc2nc3cnccc3[nH]2)cc1F` is lower in melting point: 168 to 170 °C for the first, 147 to 149 °C for the second.

First: CN1C(=O)C2(COc3cc4c(cc32)OCCO4)c2c(C(N)=O)cccc21 (centres undefined)
Second: CC(=O)OCCN1C(=O)CN2CCOC2(c2ccccc2F)c2cc(Cl)ccc21 (centres undefined)
The melting point of the first is higher: over 250 °C for the first, 120 to 123 °C for the second.

Compared with `S=C=Nc1ccc2sc(-c3cccs3)nc2c1`, `COc1ccc(CCNc2nc(Cl)c3nc(-c4ccco4)oc3n2)cc1` is higher in melting point: 147 to 149 °C for the first, 170 to 171 °C for the second.

First: Cn1cccc1C1=C(c2cn(C)c3ccccc23)C(=O)NC1=O
Second: CC(C)n1c(/C=C/COc2ccc(C(=O)C(=O)O)cc2)c(-c2ccc(F)cc2)c2ccccc21
The melting point of the first is higher: 248 to 250 °C for the first, 151 to 152 °C for the second.

First: COC(=O)CCc1ccc(OCCn2c(=O)sc3cc(C(=O)c4ccccc4)ccc32)cc1
Second: Cn1ncc(CN2C(=O)c3ccccc3C2=O)c1-c1ccc(Cl)cc1C(=O)c1ccccc1F
The melting point of the first is lower: 74 to 77 °C for the first, 153 to 155 °C for the second.

First: CC1(O)CC(=O)OC(CCc2ccc(Cl)cc2)C1 (centres undefined)
Second: O=C1c2cc(Cl)ccc2CC1Br (centres undefined)
The melting point of the first is lower: 61 to 64 °C for the first, 84 to 87 °C for the second.

First: CCN(CC)c1ccc(C=NNC(=O)c2ccc(O)cc2)cc1
Second: CC(=O)c1ccc(C2=CCC(C)CC2)cc1 (centres undefined)
The melting point of the first is higher: 228 °C for the first, 50 to 52 °C for the second.

First: O=S(=O)(c1cccc(-c2cc(-c3nc(-c4ccc(C(F)(F)F)cc4)cc(C(F)(F)F)n3)ccn2)c1)N1CCC(O)C1 (racemic)
Second: CS(=O)(=O)c1ccc(-c2cnn(-c3ccccc3F)c(=O)c2-c2ccc(F)cc2)cc1
The melting point of the first is higher: 234 °C for the first, 96 to 103 °C for the second.

First: CCCc1c(OCCCSc2ccc3c(=O)cc(C(=O)O)[nH]c3c2CCC)ccc(C(C)=O)c1O
Second: CCCCn1c(=O)c(NC(=O)Nc2c(C(C)C)cc(CO)cc2C(C)C)c(-c2cccc(OC)c2)c2cccnc21
The melting point of the first is higher: 192 to 194 °C for the first, 122 to 123 °C for the second.

First: ClCC1OCC(OCc2ccccc2)CO1 (centres undefined)
Second: CC(C)OC1CCC(=O)N1S(=O)(=O)C=Cc1ccccc1 (centres undefined)
The melting point of the first is lower: 38 to 39 °C for the first, 92 to 94 °C for the second.

Compared with `Cc1ccnc(CSc2nc(C)cc(=O)[nH]2)c1`, `COCCN(C)C1=N/C(=C\c2c[nH]c3ncc(Cl)cc23)C(=O)N1` is higher in melting point: 157 to 158 °C for the first, 281 °C for the second.

Compared with `Cc1ccc(C2CCC(=O)Nc3ccccc32)cc1` (centres undefined), `CS(=O)c1ccc(C(CC2CCCC2)C(=O)Nc2nccs2)cc1` (centres undefined) is lower in melting point: 178 to 181 °C for the first, 170 to 173 °C for the second.

Going from `N#Cc1cc(Br)ccc1CBr` to `COc1cc(Cl)cnc1OCC#Cc1ccc(Cl)nc1`, the melting point rises from 81 °C to 94 °C.

First: O=C(O)c1cc2c3c(c1)CCCC3CCC2
Second: CCc1cnc(N2CCC(c3nc4cc(-c5ccc(-n6cnnn6)cc5F)ccc4o3)CC2)nc1
The melting point of the first is higher: 208 to 209 °C for the first, 188 to 192 °C for the second.

`O=Cc1ccc(-c2ccc3ncnc(Nc4ccc(OCc5cccc(F)c5)c(Cl)c4)c3c2)cc1` showed a melting point of 237 to 238 °C.
